Tests used:
human estrogen receptor = target: T1, human estrogen receptor (Homo sapiens, UniProt P03372); assay: Transactivation assay in HeLa cells (antiestrogenic action, vit-TK-CAT reporter); assay type: cell-based; conditions: in the presence of 0.1 nM estradiol, read-out: Antagonism IC50, HELA
T1 construct: expressed in transfected cells; host or cells: HeLa cells
T1 sequence (P03372 1-595): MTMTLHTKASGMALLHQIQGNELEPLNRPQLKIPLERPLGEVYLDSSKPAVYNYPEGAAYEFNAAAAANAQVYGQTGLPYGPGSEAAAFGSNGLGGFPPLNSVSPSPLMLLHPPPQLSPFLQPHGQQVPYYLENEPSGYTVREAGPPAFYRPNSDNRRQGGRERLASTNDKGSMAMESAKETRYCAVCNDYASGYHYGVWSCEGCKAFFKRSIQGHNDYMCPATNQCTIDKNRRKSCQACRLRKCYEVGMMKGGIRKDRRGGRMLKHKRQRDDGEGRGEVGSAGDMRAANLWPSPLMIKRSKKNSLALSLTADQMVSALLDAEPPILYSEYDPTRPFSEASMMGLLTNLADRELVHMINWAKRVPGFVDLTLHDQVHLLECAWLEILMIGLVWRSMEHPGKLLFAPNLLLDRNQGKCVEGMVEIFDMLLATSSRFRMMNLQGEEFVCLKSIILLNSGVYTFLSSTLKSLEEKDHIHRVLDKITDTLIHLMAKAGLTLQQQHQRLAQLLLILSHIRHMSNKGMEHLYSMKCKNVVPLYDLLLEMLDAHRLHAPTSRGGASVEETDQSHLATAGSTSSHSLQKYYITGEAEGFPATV

[1] = system: bone (distal femur / proximal tibia) of ovariectomized rats; assay: Bone studies in ovariectomized rats: bone density by pQCT; assay type: in vivo, rat; conditions: for % of Action of E2 (bone density femur) / Bone Density Femur: Table 4, distal femur; for % of Action of E2 (bone density femur) / Bone Density Femur / Bone Density / % of Action of E2 (bone density): 28 days; for Bone Density / % of Action of E2 (bone density): Table 5, proximal tibia
uterus of infant rats = assay: Anti-uterus growth test in infant rats (antiestrogenic action); assay type: in vivo, rat; conditions: with 0.3 μg/animal/day 17β-estradiol
Excerpt: The influence of the compounds according to the invention on the uterus was examined in the uterus growth test (estrogenic action) and in the anti-uterus growth test (antiestrogenic action), both performed on infant rats.
The uterus of infant estrogen-substituted rats can be used as a test model to detect a direct action of substances with antiestrogenic properties. The parameter of the estrogenic action is the uterus growth that is induced by estradiol in infant rats and that is inhibited by simultaneous administration of a substance with antiestrogenic action.
The test substances are treated s.c. on 3 successive days (d1-d3) in combination with a substitution dose of 0.3 μg/animal/day of 17β-estradiol. As a positive control, 17β-estradiol alone is used; the vehicle group is used as a negative control. On day 4 (d4), the animals are sacrificed, uteri and vaginae are prepared outside and weighed. The organ weights are converted into mg/100 g of body weight, and then the mean and the standard deviation for each dosage are calculated. The inhibition of the uterus or vaginal growth that is induced by 17β-estradiol is indicated in % as inhibition.

[2] = system: uterus of ovariectomized rats; assay: Uterus weight in ovariectomized rats of the bone studies; assay type: in vivo, rat
Experimental: (§1) 3-month-old female rats are ovariectomized and treated once daily with the test compound immediately after the operation for 28 days. The administration is done subcutaneously in castor oil/benzyl benzoate or arachis oil/ethanol. The animals are sacrificed on the day after the last administration, and femurs, tibiae and uteri are removed. The uteri are weighed, fixed and worked up for histological studies. The determination of the bone density is carried out ex vivo on prepared long bones with use of pQCT (Quantitative Computer Tomography). The measurements are performed at a distance of 5-7 mm from the ball of the joint on the distal femur or the proximal tibia.

estrogen receptors = target: T2, estrogen receptors (Homo sapiens, UniProt P03372); assay: Transactivation assay in HeLa cells (partial estrogenic action, rPR-TK); assay type: cell-based; conditions: rPR-TK reporter, read-out: Agonism HELA (rPR-TK)
T2 construct: expressed in transfected cells; host or cells: HeLa cells
Experimental: The partial estrogenic action was also determined by transactivation assays. HeLa cells were […] with estrogen receptors and a reporter gene, which consists of the estrogen-response element of the progesterone receptor and the CAT-gene. The test was performed as described: Savouret et al., EMBO J. 10, 1875-1883 (1991).

bone / uterus of rats = assay: Dissociation of bone action/uterus action (FIG. 7); assay type: in vivo, rat; conditions: bone action vs uterus epithelial height, relative to 17β-estradiol
Excerpt: There, for compounds A, B and V, their bone-protecting actions are compared to the action of estrogen on the uterus (parameter: uterus epithelial height) as a function of dosage, in each case relative to the action of 17β-estradiol.

[3] = system: trabecular bone (proximal tibia) of ovariectomized rats; assay: Bone studies in ovariectomized rats: trabecular bone surface area (TB/TV), histological, proximal tibia; assay type: in vivo, rat; conditions: Table 4, proximal tibia, 28 days
Experimental: as §1
As an alternative, the action on the bone is determined by measuring the trabecular bone surface area of the secondary spongiosa in histological preparations of the distal femur or the proximal tibia. The result is expressed as the proportion, in percent, of the trabecular bone surface area in the measured total bone surface area ([…]). The bone density that is measured with use of QCT and the trabecular bone surface area that is determined in the histological section correlate well to one another. A comparison of the two measurement variables is therefore permissible.
About 50% of the bone density of the animals is lost by the ovariectomy. […] In Table 4 and FIG. 2, the results of this test for doses of 0.1-100 μg/animal/day are presented. The bone density was measured on the distal femur; for comparison, the trabecular bone surface area in the proximal tibia was measured. The data that are contained in Table 4 mean specifically:
TB/TV trabecular bone surface area/total bone surface area; histologically determined
For compound B according to the invention, their bone-protecting action was also determined (Table 6). For this purpose, the parameter of TB/TV was determined, which, however, with respect to the informational value for the bone-protecting activity correlates well to the parameter of BMD-qCT that is determined for compounds A and V. This can be ascertained from Table 4; both parameters were determined for compound A.

SMILES: C[C@]12C[C@H](c3ccc(OCCCCCS(=O)(=O)Cc4ccccn4)cc3)[C@@H]3c4ccc(O)cc4CC[C@H]3[C@]13CC[C@@]2(O)CC3 [Compound A]
- IC50 (human estrogen receptor): 0.4 nM
- % of Action of E2 (bone density femur) ([1]; 0.1 μg/animal/day s.c.): 14%
- Bone Density Femur ([1]; 0.1 μg/animal/day s.c.): 296.4 mg Ca/ccm
- % of Action of E2 (bone density femur) ([1]; 1 μg/animal/day s.c.): 31%
- Bone Density Femur ([1]; 1 μg/animal/day s.c.): 309.6 mg Ca/ccm
- % of Action of E2 (bone density femur) ([1]; 10 μg/animal/day s.c.): 60%
- Bone Density Femur ([1]; 10 μg/animal/day s.c.): 331.3 mg Ca/ccm
- % of Action of E2 (bone density femur) ([1]; 100 μg/animal/day s.c.): 50%
- Bone Density Femur ([1]; 100 μg/animal/day s.c.): 324.1 mg Ca/ccm
- Bone Density ([1]; 100 μg/animal/day s.c.): 361.8 mg Ca/ccm
- % of Action of E2 (bone density) ([1]; 500 μg/animal/day s.c.): 49%
- Bone Density ([1]; 500 μg/animal/day s.c.): 336.3 mg Ca/ccm
- % of Action of E2 (bone density) ([1]; 2000 μg/animal/day s.c.): 65%
- Bone Density ([1]; 2000 μg/animal/day s.c.): 348.8 mg Ca/ccm
- effect of dose increase on bone action (in words) ([1]; above 100 μg/animal/day, proximal tibia): can no longer be increased by increasing the dose
- protective action in comparison to 17β-estradiol ([1]; dose range between 10 and 100 μg/animal/day s.c.): 50-60%
- degradation of bone density after ovariectomy (in words) ([1]; ovariectomized rats, 0.1-100 μg/animal/day): prevented or inhibited
- dose with which an action of about 80% of 17β-estradiol on trabecular bone is achieved ([1]; proximal tibia, s.c.): 100 μg/animal/day
- potency relative to comparison compound V, bone-protecting action ([1]; proximal tibia, vs compound V): 3 factor
- Uterus Weight % of Inhibition (uterus of infant rats; 0.1 mg/kg s.c.): 33%
- Uterus Weight % of Inhibition (uterus of infant rats; 1 mg/kg s.c.): 88%
- Uterus Weight % of Inhibition (uterus of infant rats; 10 mg/kg s.c.): 121%
- stimulation of uterus weight (in words) ([2]; FIG. 3, test of Table 4, 0.1-100 μg/animal/day): stimulates the uterus weight, but at most does so marginally
- stimulation of uterus weight (in words) ([2]; FIG. 5, test of Table 5, all tested dosages 100-2000 μg/animal/day): stimulates the uterus weight only marginally in all tested dosages
- Emax (estrogen receptors): 16%
- dissociation of bone-protecting action from estrogen action on the uterus (in words) (bone / uterus of rats): most dissociated
- TB/TV (Tibia) ([3]; 0.1 μg/animal/day s.c.): 17.2%
- % of Action of E2 (TB/TV tibia) ([3]; 1 μg/animal/day s.c.): 17%
- TB/TV (Tibia) ([3]; 1 μg/animal/day s.c.): 18.9%
- % of Action of E2 (TB/TV tibia) ([3]; 10 μg/animal/day s.c.): 35%
- TB/TV (Tibia) ([3]; 10 μg/animal/day s.c.): 22.5%
- % of Action of E2 (TB/TV tibia) ([3]; 100 μg/animal/day s.c.): 62%
- TB/TV (Tibia) ([3]; 100 μg/animal/day s.c.): 27.0%
- % of Action of E2 (TB/TV tibia) ([3]; cell empty for 17β-estradiol, 0.1 μg/animal/day s.c.): 4.1%
